Measured values: patent publication US20100286247A1, “Methods of Protection from Oxidative Stress” (Trustees of Boston University, priority 2005, published 2010)
Entries after “also recorded” stand apart in the source; their conditions may differ. {P} = phosphate

Legend:
[1] = system: intracellular ROS in normal newborn human dermal fibroblasts; experiment: Dichlorofluorescein diacetate (DCF) assay of intracellular ROS, FACScan; type: cell-based; conditions: for DCF fluorescence (intracellular ROS) compared to diluent: 100 μM pTT / pCC, 40 μM TO / TOC1 / TOC2
Method: Normal newborn human dermal fibroblasts were cultured from foreskin specimens into DMEM supplemented with 10% CS as described above. Due to the large number of cells needed for time course experiments, and to minimize donor variability, in dichlorofluorescein diacetate FACS experiments cells from three different donors were combined.
Purified lyophilized oligonucleotides were obtained and prepared for cell treatment as described above. All treatments involved a single stimulation with T-oligo, after which cells were harvested at various times without medium changes or addition of more T-oligo. Treatment doses were 100 μM pTT and 40 μM TO except in dose-response experiments; these concentrations were determined in previous experiments to be optimal for measuring DNA damage responses using these T-oligos.^142,150,228
Complementary and scrambled oligonucleotides were chosen for each T-oligo. pAA and pCC were used as controls for pTT, and the complementary 11-base pCTAACCCTAAC (TOC1, SEQ ID NO: 22) and a scrambled sequence pGATCGATCGAT (TOC2, SEQ ID NO: 23) were used as controls for the T-oligo TO.
(§1) H2DCFDA stock solution (1 mg/ml) was thawed and diluted in Hanks' Balanced Salt Solution, 1× liquid without phenol red (GIBCO Invitrogen, Carlsbad, Calif.), to a working concentration of 100 μM immediately before use. H2DCFDA is converted by intracellular esterases to dichlorofiuorescein (DCF). When oxidized by intracellular ROS, it will fluoresce at 530 nm when excited by 480 nm light. […] All work involving DCF was conducted in minimal room light. Peaks on FACScan plots that shift to the right indicate greater fluorescence and increased ROS levels. For NADPH oxidase inhibitor studies using DPI,^237,239 the DPI stock solution was added directly to DCF treatment solution to achieve a final DPI treatment concentration of 50 μM.
Hydrogen peroxide positive controls were used to rule out saturation of the DCF probe in the T-oligo dose response experiments. Fibroblasts were exposed to 1 mM, 5 mM and 10 mM H2O2 solutions in PBS for 15 minutes following DCF incubation for 30 minutes, harvested and analyzed as described above.
The horseradish peroxidase assay data was analyzed by one-way ANOVA. DCF assay FACScan results were analyzed using Cellquest software (Becton-Dickinson, Calif.). All peak positions on x-axis of the fluorescence histogram plot were determined visually (using the software) and recorded as a number. Peak position values were then compared using one-way ANOVA.

NAD(P)H oxidase = experiment: DCF assay with NADPH oxidase inhibitor DPI; type: cell-based, human; conditions: 50 μM DPI in DCF solution; pTT or TO treated fibroblasts
Method: as §1
Because p53-dependent ROS production in fibroblasts has been attributed to NAD(P)H oxidase activity,^169 a specific NADPH oxidase inhibitor, diphenyliodonium chloride (DPI),^239 was added to the DCF assay medium to determine the role of NADPH oxidases in T-oligo mediated ROS induction.

Compound | DCF fluorescence (intracellular ROS) compared to diluent [1] | further results
pGATCGATCGAT (5' {P}, sugars by position and backbone not given here) [TOC2, reference compound] | not significantly different from each other; also recorded: overlapping with diluent curve | –
pCTAACCCTAAC (5' {P}, sugars by position and backbone not given here) [TOC1, complementary 11-base control oligonucleotide for TO, reference compound] | not significantly different from each other | –
OO [H2O2, Hydrogen peroxide, reference compound] | – | DCF peak shift of positive control ([1]; 1 mM H2O2 for 15 minutes): greater shift than any of the T-oligo treatments
[Cl-].c1ccc([I+]c2ccccc2)cc1 [DPI, diphenyliodonium chloride] | – | effect of DPI on T-oligo-stimulated ROS (DCF fluorescence) (NAD(P)H oxidase): consistently abrogated the increase in ROS stimulated by T-oligos
